Experimental data reported in patent US10267797B2, “Detection of oral microbial virulence factors” (The Procter & Gamble Company, priority 2015, dated 2019).
Read-outs that look alike come from different tables or passages of the source.

Key:
[1] = system: THP-1 cells stimulated by P. gingivalis LPS 1690; assay: Inhibition of LPS stimulated cytokine production in THP-1 cells; format: cell-based, human; settings: 0.3 mM to 9 mM citrulline; 300 ng/ml LPS; 24 hours; IL-6, TNF-α, IL-12p70, IL-10, IL-2, IFN-r, IL-1β (FIG. 26)
Procedure: Citrulline was purchased from Sigma-Aldrich (St. Louis, Mo.). THP1-Dual™ cells were purchased from Invivogen (San Diego, Calif.). Cells were cultured following the manufacturer's instruction, as described in EXAMPLE 11. For treatment, 0.3 mM to 9 mM of citrulline were first added to the culture medium. […] After 24 hours of treatment, media was collected and analyzed for cytokine production using 9-plex kit (Meso Scale Diagnostics Rockville, Md.).

TLR4 = biological target: T1, TLR4 (Homo sapiens, UniProt O00206+Q9Y6Y9); format: cell-based; settings: for reduction of P. gingivalis LPS activation on the TLR4 reporter system: P. gingivalis LPS 500 ng/ml
T1 construct: host or cells: HEK 293T (HEK-Blue hTLR4)
Text: The cell line is named here as TLR4-SEAP. The reporter gene encodes a secreted enzyme, called embryonic alkaline phosphatase or SEAP. The SEAP reporter is placed under the control of the interferon-β minimal promoter fused to five NFkB and AP-1-binding sites. Furthermore, the TLR4-SEAP cell line also contains a CD14 co-receptor gene, which is needed to transfer LPS to TLR4 receptors. The recombinant TLR binds its ligand, or distinct pathogen-associated molecule, initiates a chain of responses, leading to recruitment of NFkB and AP1 transcription factors to the reporter gene promoter, which induce expression of SEAP.
For treatment, wells of a 96-well plate were seeded with 10,000 cells/well in 100 μL of growth medium. […] On day 4, medium was changed to assay medium (90 μl), which is the DMEM medium without fetal calf serum. […] 10 μl of the bacteria, LPS and culture medium of bacterial growth were added to the TLR4-SEAP cells. Samples were taken 24 hours later, following addition of LPS, bacteria, and culture medium. Expression of the reporter gene (SEAP) was quantified with a commercially available kit (SEAP Reporter Gene Assay of Cayman Chemical Co., Ann Arbor, Mich.).
EC50 was calculated using GraphPad Prism software (GraphPad Software, La Jolla, Calif.).
Tests were conducted to understand whether stannous fluoride could reduce LPS's ability to trigger proinflammatory responses in host cells.

E. coli LPS = settings: 0.63 mM; E. coli LPS 15 μg/ml
TLR2 = TLR2 (Homo sapiens, UniProt O60603); assay: TLR2-SEAP reporter gene assay in HEK 293T cells; settings: P. gingivalis LPS; stannous 1000 uM (FIG. 4)
Chain of TLR2 (O60603 21-784): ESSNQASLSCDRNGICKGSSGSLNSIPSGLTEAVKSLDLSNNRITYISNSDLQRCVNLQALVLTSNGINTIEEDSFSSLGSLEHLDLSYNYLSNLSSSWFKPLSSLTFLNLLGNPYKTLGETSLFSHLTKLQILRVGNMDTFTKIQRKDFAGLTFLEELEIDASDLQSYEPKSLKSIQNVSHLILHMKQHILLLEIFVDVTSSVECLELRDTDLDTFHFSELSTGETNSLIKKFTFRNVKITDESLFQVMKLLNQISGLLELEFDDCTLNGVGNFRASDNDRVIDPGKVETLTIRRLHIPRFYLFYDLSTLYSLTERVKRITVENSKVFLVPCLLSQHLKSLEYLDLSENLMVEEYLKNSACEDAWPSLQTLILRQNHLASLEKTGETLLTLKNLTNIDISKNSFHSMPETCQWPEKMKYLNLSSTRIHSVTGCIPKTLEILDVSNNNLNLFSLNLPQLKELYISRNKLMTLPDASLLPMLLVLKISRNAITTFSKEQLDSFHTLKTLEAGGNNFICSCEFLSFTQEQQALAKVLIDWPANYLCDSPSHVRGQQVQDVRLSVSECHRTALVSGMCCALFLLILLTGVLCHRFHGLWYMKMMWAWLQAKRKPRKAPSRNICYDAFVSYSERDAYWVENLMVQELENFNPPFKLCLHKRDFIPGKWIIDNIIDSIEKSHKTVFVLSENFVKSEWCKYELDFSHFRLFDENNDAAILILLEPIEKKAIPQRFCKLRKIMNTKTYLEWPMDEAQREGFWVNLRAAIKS
Text: The cell line is named here as TLR2-SEAP. The reporter gene encodes a secreted enzyme, called embryonic alkaline phosphatase or SEAP. The SEAP reporter is placed under the control of the interferon-β minimal promoter fused to five NFkB and AP-1-binding sites. Furthermore, a CD14 co-receptor gene was transfected into the reporter gene cells expressing TLR2, as CD14 has been identified as a co-receptor for TLR2 ligands to enhance the TLR response. The CD14 co-receptor is needed to transfer LTA to TLR2 receptors. The recombinant TLR2 binds its ligand, or distinct pathogen-associated molecule, initiates a chain of responses, leading to recruitment of NFkB and AP1 transcription factors to the reporter gene promoter, which induce expression of SEAP.
For treatment with LTA, wells of a 96-well plate were seeded with 10,000 cells/well in 100 μL of growth medium. […] On day 4, medium (100 μL) was changed to DMEM medium without fetal calf serum. […] Samples were taken 24 hours later, following addition of samples. Expression of the reporter gene (SEAP) was quantified with a commercially available kit (SEAP Reporter Gene Assay of Cayman Chemical Co., Ann Arbor, Mich.).

T1 sequence (Q9Y6Y9 17-160): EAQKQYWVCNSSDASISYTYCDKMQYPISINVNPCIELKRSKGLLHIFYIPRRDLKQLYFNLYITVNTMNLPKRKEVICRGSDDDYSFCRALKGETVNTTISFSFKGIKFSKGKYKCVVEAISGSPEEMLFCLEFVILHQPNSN
T1 sequence (O00206 24-839): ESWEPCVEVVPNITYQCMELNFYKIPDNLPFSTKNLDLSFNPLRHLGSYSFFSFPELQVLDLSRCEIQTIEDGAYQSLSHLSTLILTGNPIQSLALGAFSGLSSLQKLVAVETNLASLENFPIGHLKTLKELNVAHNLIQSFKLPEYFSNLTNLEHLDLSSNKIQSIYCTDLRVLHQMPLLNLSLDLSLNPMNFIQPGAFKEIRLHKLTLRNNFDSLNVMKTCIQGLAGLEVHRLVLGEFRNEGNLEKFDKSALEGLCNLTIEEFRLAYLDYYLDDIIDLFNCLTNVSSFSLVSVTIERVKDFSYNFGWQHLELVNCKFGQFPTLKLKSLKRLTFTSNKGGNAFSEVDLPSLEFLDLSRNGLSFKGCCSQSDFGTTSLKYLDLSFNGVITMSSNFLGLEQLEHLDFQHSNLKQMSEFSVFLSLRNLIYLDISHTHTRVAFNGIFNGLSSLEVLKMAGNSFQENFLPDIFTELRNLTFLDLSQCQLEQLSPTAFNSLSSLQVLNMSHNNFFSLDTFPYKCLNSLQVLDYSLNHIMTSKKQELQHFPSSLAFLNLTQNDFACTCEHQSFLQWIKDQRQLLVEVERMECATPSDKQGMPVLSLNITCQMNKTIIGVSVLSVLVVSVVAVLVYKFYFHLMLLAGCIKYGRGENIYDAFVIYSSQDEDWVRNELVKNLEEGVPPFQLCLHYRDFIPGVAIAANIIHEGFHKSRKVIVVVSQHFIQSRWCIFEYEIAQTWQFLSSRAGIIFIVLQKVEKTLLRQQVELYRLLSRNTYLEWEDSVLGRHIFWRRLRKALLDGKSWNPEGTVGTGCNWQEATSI

| Compound | effect on P. gingivalis LPS 1690 stimulated proinflammatory cytokine production [1] | level of E. coli induction of TLR-4 (TLR4; 100 ng/ml E. coli LPS, stannous 500 uM or higher (FIG. 3)) | reduction of P. gingivalis LPS activation on the TLR4 reporter system (TLR4; 3.2 mM (FIG. 5)) | reduction of P. gingivalis LPS activation on the TLR4 reporter system (TLR4; […] (FIG. 5)) | Displacement % (E. coli LPS) [%] | level of P. gingivalis induction of TLR-2 (TLR2) |
| --- | --- | --- | --- | --- | --- | --- |
| NC(=O)NCCC[C@H](N)C(=O)O [Citrulline] | inhibited |  |  |  |  |  |
| [F][Sn][F] [Tin (II) fluoride] |  | decreased | about 50% | about 50% | 12.69 | decreased |
